# Measured values published in patent US20210290597A1, “METHOD OF TREATING A CONDITION ASSOCIATED WITH NEURODEGENERATION USING INHIBITORS OF OAT3” (Neuropore Therapies, Inc., priority 2018, published 2021).
# Assays:
# monomeric ASYN = experiment: Monomeric ASYN in brain homogenates, L61 ASYN transgenic mice (ProteinSimple western); format: in vivo; details: 1, 5 or 10 mg/kg per day i.p., 1 month
# Experimental: Multiple in vivo administration studies of Compound 1 were carried out in the Line 61 (L61) mThy1-alpha-synuclein transgenic mouse model of Parkinson's disease (PD). The mThy1-alpha-synuclein transgenic mouse model overexpresses wild-type human ASYN under the Thy-1 promoter (commonly referred to as Line 61 transgenic mice; Rockenstein et al., 2002). […]
# Alpha-synuclein (ASYN) is a neuronal protein whose dysregulation has been implicated in the pathogenesis of PD. The effects of Compound 1 on alpha-synuclein aggregation were assessed in both L61 ASYN transgenic and non-transgenic mice in a 1 month administration study. […] At the end of one month, the mice were sacrificed, and immunohistochemical (IHC) detection of total alpha-synuclein deposits, insoluble alpha-synuclein deposits (PK+resistant), microtubule-associated protein 1A/1B-light chain 3 (LC3), and monomeric alpha-synuclein levels were assessed in the harvested brain tissues.
# Biochemical evaluations were conducted using a ProteinSimple© western biochemical evaluation. Briefly, samples were mixed with pre-calculated volumes of 0.1× Sample Buffer and 5× Fluorescent Master Mix to make a final sample concentration of 0.4 mg/mL in 10 μL solution for signal optimization and evaporation reduction. […]
# [1] = target: T1, human transporter OATP1B3 (Homo sapiens, UniProt Q9NPD5); experiment: In vitro ion transport assay 1, OATP1B3; format: cell-based; details: probe substrate 2 μM [3H]-CCK-8
# T1 construct: expressed in transfected cells; host or cells: MDCK-II
# T1 sequence (Q9NPD5 1-702): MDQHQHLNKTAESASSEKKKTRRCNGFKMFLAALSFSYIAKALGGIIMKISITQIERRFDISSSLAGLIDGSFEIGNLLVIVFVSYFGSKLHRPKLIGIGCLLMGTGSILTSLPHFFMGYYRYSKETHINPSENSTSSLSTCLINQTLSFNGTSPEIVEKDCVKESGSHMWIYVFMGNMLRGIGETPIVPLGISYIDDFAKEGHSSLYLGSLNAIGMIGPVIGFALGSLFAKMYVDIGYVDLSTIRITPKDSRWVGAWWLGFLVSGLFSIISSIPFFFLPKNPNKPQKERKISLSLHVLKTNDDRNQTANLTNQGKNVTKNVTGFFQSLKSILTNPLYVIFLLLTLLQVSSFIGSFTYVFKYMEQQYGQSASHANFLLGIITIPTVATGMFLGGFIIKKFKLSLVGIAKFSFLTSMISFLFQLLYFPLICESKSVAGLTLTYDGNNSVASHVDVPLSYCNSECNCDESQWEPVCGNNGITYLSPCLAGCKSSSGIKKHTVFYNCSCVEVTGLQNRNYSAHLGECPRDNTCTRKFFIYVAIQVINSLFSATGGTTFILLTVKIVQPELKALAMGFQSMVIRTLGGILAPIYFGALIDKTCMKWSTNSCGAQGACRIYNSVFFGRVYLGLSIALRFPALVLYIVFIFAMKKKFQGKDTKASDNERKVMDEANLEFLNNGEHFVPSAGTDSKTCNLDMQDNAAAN
# Experimental: Compound 1 was studied in the concentration range of 0.1-100 μM for its potency against transport mediated by various transporter proteins. [table]
compound,measurement,setting,value
"O=S(=O)(c1ccc(-n2cn[nH]c2=S)cc1)c1ccc(Cl)c(C(F)(F)F)c1 [Compound 1, 4-(4-((4-chloro-3-(trifluoromethyl)phenyl)sulfonyl)phenyl)-2,4-dihydro-3H-1,2,4-triazole-3-thione]",cortical and hippocampal levels of monomeric ASYN in cytosolic fraction of brain homogenates,monomeric ASYN,reduced
same,IC50,[1],51.2 µM
